Usually AUC stands for concentration integrated over time. The bioavailability is the share of a dose that reaches the circulation, judged against a reference dose that is usually intravenous. Read a high bioavailability as much systemic uptake. One may read the half-life as the time in which the quantity being followed falls by half. A high value points to slow decline. As usually defined, the efflux ratio is the permeability from basolateral to apical divided by that in the opposite direction, in the common usage. Broadly, the IC50 is the concentration that inhibits the measured activity by half.

Here are results for 2 molecules from ChEMBL document CHEMBL3864190, “Discovery of Pyrazolopyrimidine Derivatives as Novel Dual Inhibitors of BTK and PI3Kδ” (ACS Med Chem Lett, 2016).

Each structure is given as a SMILES string.

Data set [1] is described as follows: Clearance in mouse plasma at 1 mg/kg, iv or 5 mg/kg, po by HPLC/MS analysis. The format is ADME, organism-based.
A short description of data set [2]: Drug metabolism in mouse liver microsomes assessed as compound oxidation by measuring parent compound remaining at 1 uM after 30 mins in presence of NADPH by LC-MS/MS analysis. Format: ADME.
Data set [3] can be described thus: AUC in mouse plasma at 5 mg/kg, po by HPLC/MS analysis. Format: ADME, organism-based.
The nature of data set [4]: Drug metabolism in mouse liver microsomes assessed as UGT-mediated compound glucuronidation by measuring parent compound remaining at 5 uM after 30 mins in presence of UDPGA by LC-MS/MS analysis. Format: ADME. The conditions noted are these: liver microsomes, read-out: Stability.
A short description of data set [5]: Drug metabolism in human liver microsomes assessed as compound oxidation by measuring parent compound remaining at 1 uM after 30 mins in presence of NADPH by LC-MS/MS analysis. The format is ADME. The conditions noted are these: liver microsomes, read-out: Stability.
Data set [6] is described as follows: Oral bioavailability in mouse plasma at 5 mg/kg by HPLC/MS analysis. Format: ADME, organism-based.
The nature of data set [7]: Half life in mouse plasma at 5 mg/kg, po by HPLC/MS analysis. The format is ADME, organism-based.
Data set [8] is described as follows: Apparent volume of distribution in mouse plasma at 1 mg/kg, iv or 5 mg/kg, po by HPLC/MS analysis. The format is ADME, organism-based. The conditions noted are these: read-out: Vz.
Data set [9] can be described thus: Drug metabolism in human liver microsomes assessed as UGT-mediated compound glucuronidation by measuring parent compound remaining at 5 uM after 30 mins in presence of UDPGA by LC-MS/MS analysis. The format is ADME. The settings on record: read-out: Stability. (In general: Liver microsomes are a subcellular fraction often used to study metabolism.)
Data set [10] in a line: Protein binding in mouse plasma. The conditions noted are these: read-out: PPB (converted). The format is ADME, cell-free.
Data set [11] can be described thus: Clearance in mouse plasma at 2 mg/kg, iv or 10 mg/kg, po by HPLC/MS analysis. Format: ADME, organism-based. The settings on record: in vivo.
Data set [12] is described as follows: Apparent volume of distribution in mouse plasma at 2 mg/kg, iv or 10 mg/kg, po by HPLC/MS analysis. Format: ADME, organism-based. The conditions noted are these: in vivo.
Data set [13] in a line: Half life in mouse plasma at 10 mg/kg, po by HPLC/MS analysis. Format: ADME, organism-based. The conditions noted are these: plasma.
The nature of data set [14]: Drug metabolism in dog liver microsomes assessed as compound oxidation by measuring parent compound remaining at 1 uM after 30 mins in presence of NADPH by LC-MS/MS analysis. The settings on record: 0.5 h. The format is ADME, Canis lupus familiaris.
The nature of data set [15]: Drug metabolism in rat liver microsomes assessed as compound oxidation by measuring parent compound remaining at 1 uM after 30 mins in presence of NADPH by LC-MS/MS analysis. The format is ADME. The conditions noted are these: liver microsomes, read-out: Stability.
The nature of data set [16]: Oral bioavailability in mouse plasma at 10 mg/kg by HPLC/MS analysis. The settings on record: plasma. Format: ADME, organism-based.
The nature of data set [17]: AUC in mouse plasma at 10 mg/kg, po by HPLC/MS analysis. The format is ADME, organism-based. The settings on record: plasma, read-out: AUC.
Data set [18] can be described thus: Efflux ratio of apparent permeability from basolateral to apical side over apical to basolateral side in human Caco2 cells. The format is ADME, cell-based. The settings on record: caco-2. Background: Caco-2 cells form a polarised layer with tight junctions and transporters.
In data set [19] the target is Tyrosine-protein kinase BTK (Homo sapiens, UniProt Q06187).
In data set [20] the target is T1, Phosphatidylinositol 4,5-bisphosphate 3-kinase catalytic subunit delta isoform (Homo sapiens, UniProt O00329).
T1 sequence (O00329 whole entry): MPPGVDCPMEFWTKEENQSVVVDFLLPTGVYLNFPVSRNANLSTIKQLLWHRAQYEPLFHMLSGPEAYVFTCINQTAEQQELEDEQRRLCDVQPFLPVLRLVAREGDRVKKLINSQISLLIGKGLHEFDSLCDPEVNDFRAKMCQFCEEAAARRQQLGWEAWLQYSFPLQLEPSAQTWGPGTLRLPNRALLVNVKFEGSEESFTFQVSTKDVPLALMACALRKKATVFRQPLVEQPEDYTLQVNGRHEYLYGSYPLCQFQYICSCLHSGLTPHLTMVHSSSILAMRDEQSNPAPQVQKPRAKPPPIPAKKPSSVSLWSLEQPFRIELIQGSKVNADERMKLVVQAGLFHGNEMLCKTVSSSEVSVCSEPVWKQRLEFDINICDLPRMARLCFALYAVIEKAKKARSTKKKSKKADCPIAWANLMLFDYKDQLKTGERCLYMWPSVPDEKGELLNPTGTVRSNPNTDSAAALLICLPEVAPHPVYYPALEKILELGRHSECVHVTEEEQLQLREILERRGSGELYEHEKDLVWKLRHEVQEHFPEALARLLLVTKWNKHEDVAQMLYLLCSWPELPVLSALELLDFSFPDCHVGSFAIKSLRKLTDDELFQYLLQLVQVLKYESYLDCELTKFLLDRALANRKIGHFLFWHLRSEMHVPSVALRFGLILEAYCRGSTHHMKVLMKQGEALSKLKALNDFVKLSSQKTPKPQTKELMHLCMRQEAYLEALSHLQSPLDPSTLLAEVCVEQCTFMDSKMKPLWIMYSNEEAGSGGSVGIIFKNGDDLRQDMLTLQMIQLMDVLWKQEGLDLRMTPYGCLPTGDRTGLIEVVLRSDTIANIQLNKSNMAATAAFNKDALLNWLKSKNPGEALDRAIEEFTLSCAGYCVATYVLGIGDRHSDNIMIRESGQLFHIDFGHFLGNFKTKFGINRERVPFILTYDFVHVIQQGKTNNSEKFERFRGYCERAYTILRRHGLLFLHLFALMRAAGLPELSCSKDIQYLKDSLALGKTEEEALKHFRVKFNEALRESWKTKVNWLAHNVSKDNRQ
Put plainly: Inhibition of PI3Kdelta (unknown origin) using biotinylated PIP2 as substrate in presence of streptavidin-APC by FRET assay.

Tyrosine-protein kinase BTK, sequence (Q06187 whole entry, canonical isoform): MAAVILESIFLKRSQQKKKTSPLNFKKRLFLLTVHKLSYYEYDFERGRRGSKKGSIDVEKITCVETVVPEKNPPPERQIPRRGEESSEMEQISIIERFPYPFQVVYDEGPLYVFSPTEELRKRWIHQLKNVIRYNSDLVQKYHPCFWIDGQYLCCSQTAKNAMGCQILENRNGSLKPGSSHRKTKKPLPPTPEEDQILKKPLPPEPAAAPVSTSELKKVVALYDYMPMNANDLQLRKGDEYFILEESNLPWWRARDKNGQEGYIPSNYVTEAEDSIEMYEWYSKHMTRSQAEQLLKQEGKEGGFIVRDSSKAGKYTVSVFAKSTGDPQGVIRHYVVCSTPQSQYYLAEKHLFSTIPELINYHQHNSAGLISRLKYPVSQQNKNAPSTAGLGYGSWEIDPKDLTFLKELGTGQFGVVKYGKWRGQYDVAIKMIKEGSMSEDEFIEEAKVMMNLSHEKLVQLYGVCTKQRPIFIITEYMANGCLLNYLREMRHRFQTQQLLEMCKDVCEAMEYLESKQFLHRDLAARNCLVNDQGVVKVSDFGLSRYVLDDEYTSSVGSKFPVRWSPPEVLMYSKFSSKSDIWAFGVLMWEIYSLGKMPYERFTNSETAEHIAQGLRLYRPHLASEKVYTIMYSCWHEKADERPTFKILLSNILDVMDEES

On to `Nc1ncnc2c1c(-c1ccc(Br)c(O)c1)nn2C1Cc2ccccc2C1`, for which the clearance in data set [1] was 63.7 mL/min/kg. Besides, the remaining at 0.5 h, 1 µM stood at 53% in [2] (liver microsomes, read-out: Stability) and 66% in data set [5]. In addition, the exposure (AUC) in data set [3] came out at 0.213 µM·h. Moreover, the remaining at 0.5 h, 5 µM came out at 13% in data set [4] and 5.2% in [9]. This molecule had a bioavailability in data set [6] of 6.9%. Moreover, the half-life in [7] was 2.3 h. In addition, the Vd in data set [8] came to 5.9 L/kg.
With `Nc1ccc2c(c1)CC(n1nc(-c3cc(F)c4c(c3)NCCO4)c3c(N)ncnc31)C2` (stereo in doubt; (+)-32), the Stability is on record as 28% in data set [2] (microsomes, 0.5 h, 1 µM) and 65% in data set [14]. The fraction unbound in data set [10] is 0.02. Further, the CL in data set [11] worked out at 24.3 mL/min/kg. The values for the remaining at 0.5 h, 5 µM in [4] and in data set [9] were 93% and 91%, respectively. Further, the Vz in data set [12] was 0.58 L/kg. In addition, the half-life in data set [13] is 1.2 h. For the same molecule, the remaining at 0.5 h, 1 µM was found to be 71% in data set [5] and 45% in data set [15]. This molecule also registered a bioavailability in data set [16] of 57%. In addition, the AUC in [17] was determined as 9.28 µM·h. Further, in [18], the efflux ratio was determined as 1.3. Also, the results for the IC50 in data set [19] and in data set [20] were 24 nM and 47 nM, respectively.
